ChEMBL document CHEMBL1201862, “PubChem BioAssay data set” (2004)
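The compound was tested at five concentrations on cells cultured in 96-well plates, with a 48-hour exposure period. GI50: concentration for 50% inhibition of growth.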 Activity calls are given as the source filed them. No stated cut-off is given here; in the data, active = GI50 up to about 1.1 µM and inactive = higher.

Key:
Experiment in all cases: growth of human tumour cells (NCI), 48 h
RXF 393 = system: RXF 393
K562 = system: K562
HOP-62 = system: HOP-62
A549 = system: A549
NCI-H460 = system: NCI-H460
SK-MEL-5 = system: SK-MEL-5
HL-60 = system: HL-60
IGROV-1 = system: IGROV-1
U-251 = system: U-251
RPMI-8226 = system: RPMI-8226
HT-29 = system: HT-29
SNB-78 = system: SNB-78
TK-10 = system: TK-10
SR = system: SR
EKVX = system: EKVX

Row | SMILES | GI50 (RXF 393) | GI50 (K562) | GI50 (HOP-62) | GI50 (A549) | GI50 (NCI-H460) | GI50 (SK-MEL-5) | GI50 (HL-60) | GI50 (IGROV-1) | GI50 (U-251) | GI50 (RPMI-8226) | GI50 (HT-29) | GI50 (SNB-78) | GI50 (TK-10) | GI50 (SR) | GI50 (EKVX)
1 | CCOC1C(Br)Cn2c(=O)c3cc4ccccc4cc3c(=O)n2C1C (stereo not given) | > 100 µM (inactive) | 37.6 µM (inactive) | > 100 µM (inactive) | 67.3 µM (inactive) | 40.3 µM (inactive) | 31.1 µM (inactive) | 44.9 µM (inactive) | > 100 µM (inactive) | > 100 µM (inactive) | 33.8 µM (inactive) | 27.5 µM (inactive) | > 100 µM (inactive) | > 100 µM (inactive) | 34 µM (inactive) | 47.6 µM (inactive)
2 | O=C(NCCCCCCCCCCCCNC(=O)c1cnc2ccccc2n1)c1cnc2ccccc2n1 | 31.3 µM (inactive) | > 100 µM (inactive) | 20.6 µM (inactive) | 92.5 µM (inactive) | 48.1 µM (inactive) | 9.59 µM (inactive) | > 100 µM (inactive) | 54.3 µM (inactive) | 28.8 µM (inactive) | 23.4 µM (inactive) | > 100 µM (inactive) | 76.9 µM (inactive) |  |  | > 100 µM (inactive)
3 | O=C1CCCCC1C1(O)C(=O)Nc2cc(F)ccc21 (stereo not given) | > 100 µM (inactive) | > 100 µM (inactive) | > 100 µM (inactive) | > 100 µM (inactive) | > 100 µM (inactive) | > 100 µM (inactive) | > 100 µM (inactive) | > 100 µM (inactive) | > 100 µM (inactive) | > 100 µM (inactive) | > 100 µM (inactive) | > 100 µM (inactive) | > 100 µM (inactive) |  | > 100 µM (inactive)
4 | O=C1CC(S(=O)(=O)O)C=C1Nc1cccc(Cl)c1 (stereo not given) | > 100 µM (inactive) | > 100 µM (inactive) | > 100 µM (inactive) | > 100 µM (inactive) | > 100 µM (inactive) | > 100 µM (inactive) | > 100 µM (inactive) | > 100 µM (inactive) | > 100 µM (inactive) |  | > 100 µM (inactive) | > 100 µM (inactive) | > 100 µM (inactive) | > 100 µM (inactive) | > 100 µM (inactive)
5 | COc1cccc(C=O)c1[O-].COc1cccc(C=O)c1[O-].[Zn+2] | > 100 µM (inactive) | 55.3 µM (inactive) | 46.9 µM (inactive) | > 100 µM (inactive) | 42.1 µM (inactive) | 35.2 µM (inactive) |  | 75.2 µM (inactive) | 38.4 µM (inactive) | 49.1 µM (inactive) | 97.7 µM (inactive) | > 100 µM (inactive) | > 100 µM (inactive) | 35.6 µM (inactive) | 61.5 µM (inactive)
6 | CCOC(=O)/C=C/c1ccccn1 |  | > 100 µM (inactive) | > 100 µM (inactive) | > 100 µM (inactive) | > 100 µM (inactive) | > 100 µM (inactive) | > 100 µM (inactive) | > 100 µM (inactive) | > 100 µM (inactive) | > 100 µM (inactive) | > 100 µM (inactive) | > 100 µM (inactive) | > 100 µM (inactive) | > 100 µM (inactive) | > 100 µM (inactive)
7 | COc1ccc(C(=O)C(c2ccc(OC)cc2)C2(O)C(=O)Nc3ccc([N+](=O)[O-])cc32)cc1 (stereo not given) | > 100 µM (inactive) | > 100 µM (inactive) | > 100 µM (inactive) | > 100 µM (inactive) | > 100 µM (inactive) |  | 70.8 µM (inactive) | > 100 µM (inactive) | > 100 µM (inactive) | > 100 µM (inactive) | > 100 µM (inactive) | > 100 µM (inactive) | > 100 µM (inactive) | 68.5 µM (inactive) | > 100 µM (inactive)
8 | COC(=O)c1c2c(c(-c3ccccc3)c3c1-c1nc(Cl)ccc1CC3)CCc1ccc(Cl)nc1-2 | 47.5 µM (inactive) | > 100 µM (inactive) | > 100 µM (inactive) | > 100 µM (inactive) | 70.6 µM (inactive) | > 100 µM (inactive) | > 100 µM (inactive) | > 100 µM (inactive) | 59.6 µM (inactive) | > 100 µM (inactive) | > 100 µM (inactive) | 37.9 µM (inactive) | > 100 µM (inactive) | > 100 µM (inactive) | 61.4 µM (inactive)
9 | CCCC(=O)CC(C)C(=O)C(=O)NC12CC3CC(CC(C3)C1)C2 (stereo not given) | > 100 µM (inactive) | > 100 µM (inactive) | > 100 µM (inactive) | > 100 µM (inactive) | > 100 µM (inactive) | > 100 µM (inactive) | > 100 µM (inactive) |  | > 100 µM (inactive) | > 100 µM (inactive) | > 100 µM (inactive) | > 100 µM (inactive) | > 100 µM (inactive) |  | > 100 µM (inactive)
10 | COc1ccc(NC(=O)CC(=O)N2N=C(N(CCC#N)c3cccc(C)c3)CC2c2ccccc2)cc1 (stereo not given) | > 100 µM (inactive) | > 100 µM (inactive) | > 100 µM (inactive) | > 100 µM (inactive) | > 100 µM (inactive) | > 100 µM (inactive) | > 100 µM (inactive) | > 100 µM (inactive) | > 100 µM (inactive) | > 100 µM (inactive) | > 100 µM (inactive) | > 100 µM (inactive) |  | > 100 µM (inactive) | > 100 µM (inactive)
11 | Clc1ccc(C2=NOC(C3CCCCC3)C2)cc1 (stereo not given) |  | > 100 µM (inactive) | > 100 µM (inactive) | > 100 µM (inactive) | > 100 µM (inactive) | > 100 µM (inactive) | > 100 µM (inactive) | > 100 µM (inactive) | > 100 µM (inactive) | > 100 µM (inactive) | > 100 µM (inactive) | > 100 µM (inactive) | > 100 µM (inactive) | > 100 µM (inactive) | 
12 | COc1ccccc1C1c2cc3c(cc2OC(O)(CO)C1C(=O)O)OCO3.COc1ccccc1C1c2cc3c(cc2OC2(O)COC(=O)C12)OCO3 (stereo not given) | > 100 µM (inactive) | > 100 µM (inactive) | > 100 µM (inactive) | > 100 µM (inactive) | > 100 µM (inactive) | > 100 µM (inactive) | 95.1 µM (inactive) | > 100 µM (inactive) | > 100 µM (inactive) | > 100 µM (inactive) | > 100 µM (inactive) | > 100 µM (inactive) | > 100 µM (inactive) | > 100 µM (inactive) | > 100 µM (inactive)
13 | N#CC1C[C@@H]2CC3(CCC2CN1C(=O)c1ccccc1)OCCO3 (stereo not given in full) | > 100 µM (inactive) | > 100 µM (inactive) | > 100 µM (inactive) | > 100 µM (inactive) | > 100 µM (inactive) | > 100 µM (inactive) | > 100 µM (inactive) | > 100 µM (inactive) | > 100 µM (inactive) | > 100 µM (inactive) | > 100 µM (inactive) | > 100 µM (inactive) | > 100 µM (inactive) | 0.607 µM (active) | > 100 µM (inactive)
14 | O=C1CCCc2c(O)ccc(O)c21 | > 100 µM (inactive) | 35.9 µM (inactive) | > 100 µM (inactive) | > 100 µM (inactive) | > 100 µM (inactive) | > 100 µM (inactive) | 22.8 µM (inactive) | > 100 µM (inactive) | > 100 µM (inactive) | 40.6 µM (inactive) | > 100 µM (inactive) | > 100 µM (inactive) | > 100 µM (inactive) | 28.3 µM (inactive) | 85.7 µM (inactive)
15 | CCOC(=O)C(C[Si](C)(C)C)P(=O)(OCC)OCC (stereo not given) | > 100 µM (inactive) | > 100 µM (inactive) | > 100 µM (inactive) | > 100 µM (inactive) | > 100 µM (inactive) | > 100 µM (inactive) | > 100 µM (inactive) | > 100 µM (inactive) | > 100 µM (inactive) | > 100 µM (inactive) | > 100 µM (inactive) | > 100 µM (inactive) | > 100 µM (inactive) | > 100 µM (inactive) | 
16 | O=C1NC(O)n2c(=O)[nH]c(=O)n21 (stereo not given) | > 100 µM (inactive) | > 100 µM (inactive) | > 100 µM (inactive) | > 100 µM (inactive) | > 100 µM (inactive) | > 100 µM (inactive) | 71 µM (inactive) | > 100 µM (inactive) | > 100 µM (inactive) | > 100 µM (inactive) | > 100 µM (inactive) | > 100 µM (inactive) | > 100 µM (inactive) | > 100 µM (inactive) | > 100 µM (inactive)
17 | COc1cc2cc3c4c(cc(OC)c(OC)c4c2cc1OC)CCN3C(=O)OCCN1CCNCC1 | 14.4 µM (inactive) | 12.6 µM (inactive) | 17.1 µM (inactive) | 18.5 µM (inactive) | 13.5 µM (inactive) | 14.3 µM (inactive) | 13.2 µM (inactive) | 17.3 µM (inactive) | 15.3 µM (inactive) | 14.1 µM (inactive) | 12.6 µM (inactive) | 16 µM (inactive) | 15 µM (inactive) | 11.2 µM (inactive) | 15.1 µM (inactive)
18 | CC(=O)N(N=O)c1ccc(N(N=O)C(C)=O)cc1 | > 100 µM (inactive) | > 100 µM (inactive) | > 100 µM (inactive) | > 100 µM (inactive) | > 100 µM (inactive) | > 100 µM (inactive) | > 100 µM (inactive) | > 100 µM (inactive) | > 100 µM (inactive) | > 100 µM (inactive) | > 100 µM (inactive) | > 100 µM (inactive) |  | > 100 µM (inactive) | 
